In patent US20230079819A1, “COMPOUNDS AND USES THEREOF” (Foghorn Therapeutics Inc., priority 2019, published 2023):

How the values were obtained:
BRM = target: T1, BRM (Homo sapiens, UniProt P51531); experiment: ATPase catalytic activity of BRM, ADP-Glo in vitro biochemical assay; conditions: ATPase catalytic activity, 30 nM BRM, 400 μM ATP, read-out: BRM IP50 (μM)*
T1 construct: made in house; host or cells: High Five insect cells

BRG-1 = target: T2, BRG-1 (Homo sapiens, UniProt P51532); experiment: ATPase catalytic activity of BRG-1, ADP-Glo in vitro biochemical assay; conditions: ATPase catalytic activity, 30 nM BRG-1, 400 μM ATP, read-out: BRG1 IP50 (μM)*
T2 construct: made in house; host or cells: High Five insect cells
T2 sequence (P51532 whole entry): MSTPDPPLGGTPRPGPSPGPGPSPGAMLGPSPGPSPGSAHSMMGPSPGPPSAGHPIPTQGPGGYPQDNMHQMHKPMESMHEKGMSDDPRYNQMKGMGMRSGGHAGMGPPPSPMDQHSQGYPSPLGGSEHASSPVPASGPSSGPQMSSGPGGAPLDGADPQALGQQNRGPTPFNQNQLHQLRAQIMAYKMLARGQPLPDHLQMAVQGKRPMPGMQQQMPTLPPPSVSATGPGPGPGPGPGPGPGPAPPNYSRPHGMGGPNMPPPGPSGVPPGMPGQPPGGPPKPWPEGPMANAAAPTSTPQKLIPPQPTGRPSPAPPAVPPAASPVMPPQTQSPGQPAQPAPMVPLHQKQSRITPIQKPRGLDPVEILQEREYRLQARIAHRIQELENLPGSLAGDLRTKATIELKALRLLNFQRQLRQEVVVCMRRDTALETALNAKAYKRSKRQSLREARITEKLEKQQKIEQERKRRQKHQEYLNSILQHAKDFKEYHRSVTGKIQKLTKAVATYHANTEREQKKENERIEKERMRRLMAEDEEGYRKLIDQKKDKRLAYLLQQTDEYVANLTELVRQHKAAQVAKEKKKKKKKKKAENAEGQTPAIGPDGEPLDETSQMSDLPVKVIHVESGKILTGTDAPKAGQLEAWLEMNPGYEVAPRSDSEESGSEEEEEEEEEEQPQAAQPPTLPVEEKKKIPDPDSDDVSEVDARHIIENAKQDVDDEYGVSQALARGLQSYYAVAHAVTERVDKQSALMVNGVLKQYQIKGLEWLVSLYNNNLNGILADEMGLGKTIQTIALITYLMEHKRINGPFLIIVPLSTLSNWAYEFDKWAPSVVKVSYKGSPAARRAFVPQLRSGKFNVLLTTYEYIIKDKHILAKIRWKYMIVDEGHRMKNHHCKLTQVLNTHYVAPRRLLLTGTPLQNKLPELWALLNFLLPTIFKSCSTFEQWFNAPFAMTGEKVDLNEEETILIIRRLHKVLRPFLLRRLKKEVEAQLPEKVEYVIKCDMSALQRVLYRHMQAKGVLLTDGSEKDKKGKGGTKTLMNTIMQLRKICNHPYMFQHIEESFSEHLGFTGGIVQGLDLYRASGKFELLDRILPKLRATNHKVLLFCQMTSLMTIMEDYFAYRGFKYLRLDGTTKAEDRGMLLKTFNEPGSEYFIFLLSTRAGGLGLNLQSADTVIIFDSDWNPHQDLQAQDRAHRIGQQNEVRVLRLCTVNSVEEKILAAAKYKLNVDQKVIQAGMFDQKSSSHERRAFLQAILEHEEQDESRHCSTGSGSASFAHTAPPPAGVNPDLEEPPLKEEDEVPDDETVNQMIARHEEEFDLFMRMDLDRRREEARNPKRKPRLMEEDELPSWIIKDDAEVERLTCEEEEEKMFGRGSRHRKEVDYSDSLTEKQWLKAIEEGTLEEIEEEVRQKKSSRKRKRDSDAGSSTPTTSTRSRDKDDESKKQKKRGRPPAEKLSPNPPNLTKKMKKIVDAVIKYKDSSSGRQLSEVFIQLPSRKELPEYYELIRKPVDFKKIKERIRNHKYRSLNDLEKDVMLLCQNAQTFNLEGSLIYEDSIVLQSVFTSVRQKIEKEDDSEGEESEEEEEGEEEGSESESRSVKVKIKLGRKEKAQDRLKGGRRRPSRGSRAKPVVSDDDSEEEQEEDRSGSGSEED

T1 sequence (P51531 whole entry): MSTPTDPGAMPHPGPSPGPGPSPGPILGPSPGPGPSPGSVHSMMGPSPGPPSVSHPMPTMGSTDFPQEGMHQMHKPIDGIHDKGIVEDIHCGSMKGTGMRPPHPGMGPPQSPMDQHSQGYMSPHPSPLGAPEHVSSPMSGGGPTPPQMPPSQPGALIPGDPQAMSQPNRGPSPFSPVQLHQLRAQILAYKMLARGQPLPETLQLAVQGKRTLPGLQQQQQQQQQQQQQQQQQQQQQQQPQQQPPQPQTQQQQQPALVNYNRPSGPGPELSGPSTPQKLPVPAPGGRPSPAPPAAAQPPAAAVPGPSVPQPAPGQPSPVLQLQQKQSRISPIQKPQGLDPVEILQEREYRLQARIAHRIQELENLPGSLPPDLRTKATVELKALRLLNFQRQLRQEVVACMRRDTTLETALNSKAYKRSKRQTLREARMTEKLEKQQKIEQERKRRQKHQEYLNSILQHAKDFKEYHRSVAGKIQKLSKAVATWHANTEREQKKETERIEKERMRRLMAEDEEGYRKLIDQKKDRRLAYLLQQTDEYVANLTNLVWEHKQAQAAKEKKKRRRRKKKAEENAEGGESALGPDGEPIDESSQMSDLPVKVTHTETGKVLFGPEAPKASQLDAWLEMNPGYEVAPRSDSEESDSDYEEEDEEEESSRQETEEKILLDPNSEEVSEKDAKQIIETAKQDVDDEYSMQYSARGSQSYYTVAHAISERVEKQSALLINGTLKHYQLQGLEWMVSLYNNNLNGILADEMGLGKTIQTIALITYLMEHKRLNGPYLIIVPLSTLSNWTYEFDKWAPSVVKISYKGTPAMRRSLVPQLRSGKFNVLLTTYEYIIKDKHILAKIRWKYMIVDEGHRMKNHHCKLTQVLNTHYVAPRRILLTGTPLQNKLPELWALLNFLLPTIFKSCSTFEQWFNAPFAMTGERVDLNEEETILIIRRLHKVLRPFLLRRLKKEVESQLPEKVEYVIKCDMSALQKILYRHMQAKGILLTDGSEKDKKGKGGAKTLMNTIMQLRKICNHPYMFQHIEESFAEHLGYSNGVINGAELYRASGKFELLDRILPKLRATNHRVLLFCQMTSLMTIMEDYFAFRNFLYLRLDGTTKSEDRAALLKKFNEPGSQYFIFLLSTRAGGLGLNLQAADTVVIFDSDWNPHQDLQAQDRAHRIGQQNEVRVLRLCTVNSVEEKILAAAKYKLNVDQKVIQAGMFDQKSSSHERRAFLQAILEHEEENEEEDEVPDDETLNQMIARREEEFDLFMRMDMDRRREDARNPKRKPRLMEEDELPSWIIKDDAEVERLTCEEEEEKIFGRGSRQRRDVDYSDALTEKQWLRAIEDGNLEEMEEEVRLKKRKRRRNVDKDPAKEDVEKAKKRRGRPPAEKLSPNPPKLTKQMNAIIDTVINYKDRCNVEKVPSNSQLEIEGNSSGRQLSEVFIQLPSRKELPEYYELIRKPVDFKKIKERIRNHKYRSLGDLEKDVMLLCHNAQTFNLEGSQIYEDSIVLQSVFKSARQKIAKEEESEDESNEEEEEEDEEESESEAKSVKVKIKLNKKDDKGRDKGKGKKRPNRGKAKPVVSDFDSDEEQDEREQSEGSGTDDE

| Structure (SMILES) | IC50 (BRM) | IC50 (BRG-1) |
| --- | --- | --- |
| CS(=O)(=O)n1ccc(C(=O)NCC(=O)Nc2nc(-c3cccc(/C=C/c4ccncc4)c3)cs2)c1 [Compound 150] | < 0.01 µM | < 0.01 µM |
| CS(=O)(=O)n1ccc(C(=O)NCC(=O)Nc2nc(-c3cccc(CCc4ccncc4)c3)cs2)c1 [Compound 151, 1-(methylsulfonyl)-N-(2-oxo-2-((4-(3-(2-(pyridin-4-yl)ethyl)phenyl)thiazol-2-yl)amino)ethyl)-1H-pyrrole-3-carboxamide] | < 0.01 µM | < 0.01 µM |
| CN(C(=O)CNC(=O)c1ccn(S(C)(=O)=O)c1)c1nc(-c2cccc(-c3ccncc3)c2)cs1 [Compound 152] | > 0.1 µM | > 0.1 µM |
| CC(C)(NC(=O)c1ccn(S(C)(=O)=O)c1)C(=O)Nc1nc(-c2cccc(-c3ccncc3)c2)cs1 [Compound 153] | > 0.1 µM | > 0.1 µM |
| Cc1cc(-c2cccc(-c3csc(NC(=O)CNC(=O)c4ccn(S(C)(=O)=O)c4)n3)c2)ccn1 [Compound 154] | < 0.01 µM | < 0.01 µM |
| CS(=O)(=O)n1ccc(C(=O)NCC(=O)Nc2cccc(-c3cccc(-c4ccncc4)c3)n2)c1 [Compound 156, 1-(methylsulfonyl)-N-(2-oxo-2-((6-(3-(pyridin-4-yl)phenyl)pyridin-2-yl)amino)ethyl)-1H-pyrrole-3-carboxamide] | > 0.01 µM | > 0.01 µM |
| CC1(C)OCC12CN(c1cccc(-c3csc(NC(=O)CNC(=O)c4ccn(S(C)(=O)=O)c4)n3)c1)C2 [Compound 157] | > 0.1 µM | > 0.1 µM |
| C[C@H]1CN(c2cccc(-c3csc(NC(=O)CNC(=O)c4ccn(S(C)(=O)=O)c4)n3)c2)[C@@H](C)CO1 [Compound 160] | > 0.01 µM | > 0.1 µM |
| CO[C@@H]1CCCN(c2cccc(-c3csc(NC(=O)CNC(=O)c4ccn(S(C)(=O)=O)c4)n3)c2)C1 [Compound 161] | > 0.01 µM | > 0.01 µM |
| C[C@@H]1CN(c2cccc(-c3csc(NC(=O)CNC(=O)c4ccn(C(C)(C)C#N)c4)n3)c2)C[C@H](C)O1 [Compound 162] | < 0.01 µM | < 0.01 µM |
| C[C@@H]1CN(c2cccc(-c3csc(NC(=O)CNC(=O)c4ccn(C5(C#N)CC5)c4)n3)c2)C[C@H](C)O1 [Compound 163] | < 0.01 µM | > 0.01 µM |
| CC1(C)CN(c2cccc(-c3csc(NC(=O)CNC(=O)c4ccn(S(C)(=O)=O)c4)n3)c2)CC[C@H]1O [Compound 164] | < 0.01 µM | > 0.01 µM |
| CC1(C)CN(c2cccc(-c3csc(NC(=O)CNC(=O)c4ccn(S(C)(=O)=O)c4)n3)c2)CC[C@@H]1O [Compound 165] | > 0.01 µM | > 0.01 µM |
| CO[C@@H]1CN(c2cccc(-c3csc(NC(=O)CNC(=O)c4ccn(S(C)(=O)=O)c4)n3)c2)C[C@H]1F [Compound 168] | > 0.01 µM | > 0.01 µM |
| CS(=O)(=O)n1ccc(C(=O)NCC(=O)Nc2nc(-c3cccc(N4CCC(CO)(C(F)(F)F)C4)c3)cs2)c1 (stereo not drawn) [Compound 169] | > 0.1 µM | > 0.1 µM |
| CS(=O)(=O)n1ccc(C(=O)NCC(=O)Nc2nc(-c3cccc(N4CC5(CCCCO5)C4)c3)cs2)c1 [Compound 170] | > 0.01 µM | > 0.01 µM |
| CS(=O)(=O)n1ccc(C(=O)NCC(=O)Nc2nc(-c3cccc(N4CC5(CCCOC5)C4)c3)cs2)c1 [Compound 171] | > 0.1 µM | > 0.1 µM |
| CS(=O)(=O)n1ccc(C(=O)NCC(=O)Nc2nc(-c3cccc(N4CC(n5ccnc5)C4)c3)cs2)c1 [Compound 172] | > 0.01 µM | > 0.1 µM |

| Structure (SMILES) | IC50 (BRM) | IC50 (BRG-1) |
| --- | --- | --- |
| CS(=O)(=O)n1ccc(C(=O)NCC(=O)Nc2nc(-c3cccc(N4CC(n5cccn5)C4)c3)cs2)c1 [Compound 174] | > 0.01 µM | > 0.01 µM |
| CN(C)C1CN(c2cccc(-c3csc(NC(=O)CNC(=O)c4ccn(S(C)(=O)=O)c4)n3)c2)C1 [Compound 175] | > 0.01 µM | > 0.01 µM |
| CS(=O)(=O)n1ccc(C(=O)NCC(=O)Nc2nc(-c3cccc(N4CC(O)(C(F)(F)F)C4)c3)cs2)c1 [Compound 176] | > 0.1 µM | > 0.1 µM |
| CS(=O)(=O)n1ccc(C(=O)NCC(=O)Nc2nc(-c3cccc(N4CC[C@H](O)C4)c3)cs2)c1 [Compound 177] | > 0.01 µM | > 0.01 µM |
| CS(=O)(=O)n1ccc(C(=O)NCC(=O)Nc2nc(-c3cccc(N4CC[C@@H](O)C4)c3)cs2)c1 [Compound 178] | < 0.01 µM | < 0.01 µM |
| CC1(O)CN(c2cccc(-c3csc(NC(=O)CNC(=O)c4ccn(S(C)(=O)=O)c4)n3)c2)C1 [Compound 179] | > 0.01 µM | > 0.01 µM |
| CO[C@H]1CN(c2cccc(-c3csc(NC(=O)CNC(=O)c4ccn(S(C)(=O)=O)c4)n3)c2)C[C@@H]1F [Compound 180] | > 0.01 µM | > 0.01 µM |
| C[C@@H]1CN(c2cccc(-c3nc(NC(=O)CNC(=O)c4ccn(S(C)(=O)=O)c4)sc3F)c2)C[C@H](C)O1 [Compound 181, N-[2-[[4-[3-[(cis)-2,6-dimethylmorpholin-4-yl]phenyl]-5-fluoro-thiazol-2-yl]amino]-2-oxo-ethyl]-1-methylsulfonyl-pyrrole-3-carboxamide] | > 0.01 µM | > 0.01 µM |
| C[C@@H]1CN(c2cccc(-c3csc(NC(=O)CNC(=O)c4ccn(S(C)(=O)=O)c4)n3)c2)CC[C@H]1O [Compound 182, N-[2-[[4-[3-[(3R,4R)-4-hydroxy-3-methyl-1-piperidyl]phenyl]thiazol-2-yl]amino]-2-oxo-ethyl]-1-methylsulfonyl-pyrrole-3-carboxamide] | < 0.01 µM | < 0.01 µM |
| C[C@H]1CN(c2cccc(-c3csc(NC(=O)CNC(=O)c4ccn(S(C)(=O)=O)c4)n3)c2)CC[C@@H]1O [Compound 183, N-[2-[[4-[3-[(3S,4S)-4-hydroxy-3-methyl-1-piperidyl]phenyl]thiazol-2-yl]amino]-2-oxo-ethyl]-1-methylsulfonyl-pyrrole-3-carboxamide] | < 0.01 µM | < 0.01 µM |
| COCCOC1CN(c2cccc(-c3csc(NC(=O)CNC(=O)c4ccn(S(C)(=O)=O)c4)n3)c2)C1 [Compound 184] | > 0.01 µM | > 0.01 µM |
| CC1(n2ccc(C(=O)NCC(=O)Nc3nc(-c4cccc(N5CCC5)c4)cs3)c2)COC1 [Compound 185] | > 0.01 µM | > 0.01 µM |
| CC(C)(C)n1ccc(C(=O)NCC(=O)Nc2nc(-c3cccc(N4CCC4)c3)cs2)c1 [Compound 186] | > 0.01 µM | > 0.01 µM |
| C[C@@H]1CN(c2cccc(-c3csc(NC(=O)CNC(=O)c4ccn(S(C)(=O)=O)c4)n3)c2)CC[C@@H]1O [Compound 188] | < 0.01 µM | > 0.01 µM |
| CN(C)C(=O)Cn1ccc(-c2cccc(-c3csc(NC(=O)CNC(=O)c4ccn(S(C)(=O)=O)c4)n3)c2)n1 [Compound 189] | < 0.01 µM | < 0.01 µM |
| CS(=O)(=O)n1ccc(C(=O)NCC(=O)Nc2nc(-c3cccc(N4CC[C@H](O)[C@@H](F)C4)c3)cs2)c1 [Compound 190] | < 0.01 µM | < 0.01 µM |
| CS(=O)(=O)n1ccc(C(=O)NCC(=O)Nc2nc(-c3cccc(N4CC[C@H](O)[C@H](F)C4)c3)cs2)c1 [Compound 191] | < 0.01 µM | > 0.01 µM |
| COCCS(=O)(=O)n1ccc(C(=O)NCC(=O)Nc2nc(-c3cccc(N4C[C@@H](C)O[C@@H](C)C4)c3)cs2)c1 [Compound 193] | > 0.01 µM | > 0.01 µM |
